Data set [1] in a line: Compound solubility in water. As to conditions: water; for solubility: Compound Solubility in Water.
The target of data set [2] is T1, glucocerebrosidase (Gcase) (Homo sapiens, UniProt P04062).
T1 construct: micellar solution containing 10 nM GCase and 100 nM saposin C
T1 sequence (P04062 40-536): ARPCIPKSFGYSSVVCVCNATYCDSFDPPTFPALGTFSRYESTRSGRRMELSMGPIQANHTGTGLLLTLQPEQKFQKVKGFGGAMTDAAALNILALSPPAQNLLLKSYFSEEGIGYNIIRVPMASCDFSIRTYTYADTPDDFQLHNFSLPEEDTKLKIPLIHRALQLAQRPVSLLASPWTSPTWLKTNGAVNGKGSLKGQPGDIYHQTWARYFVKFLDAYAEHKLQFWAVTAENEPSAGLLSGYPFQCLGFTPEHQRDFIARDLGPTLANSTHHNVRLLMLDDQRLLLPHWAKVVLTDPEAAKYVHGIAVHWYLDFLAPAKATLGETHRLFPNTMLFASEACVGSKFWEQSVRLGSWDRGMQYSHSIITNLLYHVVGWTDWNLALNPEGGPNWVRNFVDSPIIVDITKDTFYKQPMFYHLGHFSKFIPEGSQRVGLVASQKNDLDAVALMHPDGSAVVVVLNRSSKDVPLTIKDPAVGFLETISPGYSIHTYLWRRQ
The data set is described as follows: Glucocerebrosidase (Gcase) activation assay, 4-methylumbelliferyl-beta-D-glucopyranoside substrate, fluorescence readout. Format: biochemical. As to conditions: for activation at 0.1 µM / Percent Gcase Activation, 0.1 μM Test Compound: test compound at 0.1 μM; for activation at 0.1 µM: read-out: Percent Gcase Activation, 0.1 μM Test Compound; for activation at 1 µM / Percent Gcase Activation, 1 μM Test Compound: test compound at 1.0 μM; for activation at 1 µM: read-out: Percent Gcase Activation, 1 μM Test Compound. The method, then:
The ability of exemplary compounds to activate glucocerebrosidase (Gcase) was measured.
A 484 μL aliquot of a 1.0 mg/mL solution of phosphatidylserine (PS) (Sigma P7769) in chloroform was evaporated under a stream of nitrogen for 1 hour. The lipid film was dissolved over 4 minutes of vigorous vortexing in 40 mL of 176 mM K2HPO4/50 mM citric acid (pH 4.7) containing 7.5 μL of triton X-100, resulting in a mixed micellar preparation with a composition of 0.32 mM triton and 0.37 mol % PS. 4-Methylumbelliferyl-beta-D-glucopyranoside (ACROS-337025000) was dissolved in the micellar solution to a final concentration of 2 mM for use as the reaction substrate.
Test compounds were diluted to the desired concentrations with dimethylsulfoxide (DMSO) from 10 mM stocks, and 0.41 μL of the DMSO compound mixture was added to 100 μL of micellar solution containing 10 nM GCase and 100 nM saposin C (Enzo ALX-201-262-C050). Pre-incubation was allowed to occur for 30 minutes at room temperature, after which the reaction was initiated by combining 25 μL of substrate solution with 25 μL of compound/GCase/saposin mixture. The reaction proceeded for 15 minutes at room temperature and was stopped by adding 150 μL of 1M glycine, pH 12.5. The endpoint of the reaction was monitored by measuring fluorescence intensity (excitation: 365 nm; emission: 440 nm) on a SpectraMax i3 instrument (Molecular Devices). Test compounds were screened at 1.0 and 0.1 μM final concentration, and subsequent 8-point dose response curves were obtained using 3-fold dilutions from a maximum final concentration of 5 μM.

≈ marks a conversion by molar mass, not a printed value. Bounds are passed on as bounds.

With `Cc1cc(C2CC2)n2ccc(C(=O)N[C@H]3CC[C@H](OCCCC(F)(F)F)CC3)c2n1` [III-46], in data set [1], the solubility (in general, the concentration that dissolves in the medium under given conditions) amounted to 1.7 µg/mL (≈ 4.01 µM). In addition, in data set [2], the activation at 0.1 µM is less than 10% and the activation at 1 µM is more than 60%.
For the compound `Cc1cc(C2CC2)n2ccc(C(=O)N[C@H]3CC[C@H](OCCCCC(F)(F)F)CC3)c2n1` [III-47], the solubility in data set [1] worked out at 0.3 µg/mL (≈ 0.686 µM). In addition, in data set [2], the activation at 0.1 µM was less than 10% and the activation at 1 µM was more than 60%.
For `COCc1cc(C)n2ccc(C(=O)NC(C)(C)c3ccc(-c4cocn4)cc3)c2n1` [III-48], in that order: 3.5 µg/mL (≈ 8.65 µM), 10 to 20% and more than 60%.
For `COCc1cc(C)nc2c(C(=O)NC(C)(C)c3ccc(-c4cocn4)cc3)ccn12` [III-49], in that order: 1.7 µg/mL (≈ 4.2 µM), more than 20% and more than 60%.
The matching figures for `COCc1cc(C)n2ccc(C(=O)Nc3ccc(-c4cocn4)cc3)c2n1` [III-50]: 0.3 µg/mL (≈ 0.828 µM), more than 20% and more than 60%.
In data set [1], `COc1cc(C)n2ccc(C(=O)Nc3ccc(-c4cocn4)cc3)c2n1` [III-52] registered a solubility of 0.1 µg/mL (≈ 0.287 µM). In data set [2], the activation at 0.1 µM is 10 to 20% and the activation at 1 µM was 30 to 60%.
Take `Cc1cc(O)n2ccc(C(=O)Nc3ccc(-c4cocn4)cc3)c2n1` [III-55]: in data set [1], the solubility came to 1.8 µg/mL (≈ 5.38 µM). Besides, in data set [2], the activation at 0.1 µM is less than 10% and the activation at 1 µM was less than 30%.
The matching figures for `Cc1cc(O)n2ccc(C(=O)NC3CCCc4ccccc43)c2n1` (centres unmarked) [III-56]: 3.7 µg/mL (≈ 11.5 µM), less than 10% and less than 30%.
The matching figures for `COCc1cc(C(F)F)nc2c(C(=O)NC3(C)CCOc4cc(F)c(F)cc43)ccn12` (centres unmarked) [III-57]: 1.5 µg/mL (≈ 3.43 µM), 10 to 20% and more than 60%.
The matching figures for `COCc1cc(C(F)F)n2ccc(C(=O)NC3(C)CCOc4cc(F)c(F)cc43)c2n1` (centres unmarked) [III-58]: 4.1 µg/mL (≈ 9.37 µM), 10 to 20% and more than 60%.
In data set [1], `[2H]C1(NC(=O)c2ccn3c(COC)cc(C(C)C)nc23)CCOc2cc(F)c(F)cc21` (centres unmarked) [III-59] had a solubility of 0.07 µg/mL (≈ 0.168 µM). Moreover, in data set [2], the activation at 0.1 µM was in the range of 10 to 20% and the activation at 1 µM was more than 60%.
For the compound `[2H]C1(NC(=O)c2ccn3c(C(C)C)cc(COC)nc23)CCOc2cc(F)c(F)cc21` (centres unmarked) [III-60], in data set [1], the concentration in solution (solubility) was 2.4 µg/mL (≈ 5.76 µM). In addition, in data set [2], the activation at 0.1 µM is less than 10% and the activation at 1 µM is 30 to 60%.
In data set [1], `C#Cc1ccc(C(C)(C)NC(=O)c2ccn3c(C)cc(COC)nc23)cc1` [III-61] displayed a solubility of 2.5 µg/mL (≈ 6.92 µM). In data set [2], the activation at 0.1 µM was more than 20% and the activation at 1 µM was more than 60%.
The matching figures for `C#Cc1ccc(C(C)(C)NC(=O)c2ccn3c(COC)cc(C)nc23)cc1` [III-62]: 2.7 µg/mL (≈ 7.47 µM), more than 20% and more than 60%.
Take `C#Cc1cccc(C(C)(C)NC(=O)c2ccn3c(COC)cc(C)nc23)c1` [III-63]: the solubility in data set [1] turned out to be 0.8 µg/mL (≈ 2.21 µM). In addition, in data set [2], the activation at 0.1 µM is 10 to 20% and the activation at 1 µM is more than 60%.
On to `C#Cc1cccc(C(C)(C)NC(=O)c2ccn3c(C)cc(COC)nc23)c1` [III-64], for which the solubility in data set [1] came to 0.5 µg/mL (≈ 1.38 µM). In data set [2], the activation at 0.1 µM was more than 20% and the activation at 1 µM was more than 60%.
Regarding `CCCCO[C@H]1CC[C@H](NC(=O)c2ccn3c(C)cc(Cl)nc23)CC1` [III-65], in data set [1], the solubility came out at 8.2 µg/mL (≈ 22.5 µM). Further, in data set [2], the activation at 0.1 µM was more than 20% and the activation at 1 µM was more than 60%.
The matching figures for `CCCCO[C@H]1CC[C@H](NC(=O)c2ccn3c(C)cc(NC)nc23)CC1` [III-66]: 0.4 µg/mL (≈ 1.12 µM), 10 to 20% and more than 60%.
The matching figures for `CCCCO[C@H]1CC[C@H](NC(=O)c2ccn3c(C)cc(C(F)F)nc23)CC1` [III-67]: 4.7 µg/mL (≈ 12.4 µM), more than 20% and more than 60%.
For `CCCCO[C@H]1CC[C@H](NC(=O)c2ccn3c(C(F)F)cc(C)nc23)CC1` [III-68], in that order: 1 µg/mL (≈ 2.64 µM), more than 20% and more than 60%.
On to `Cc1cc(Cl)nc2c(C(=O)NC3c4ccccc4C4CC3C4)ccn12` (centres unmarked) [III-69], for which, in data set [1], the solubility stood at 0.06 µg/mL (≈ 0.171 µM). Further, in data set [2], the activation at 0.1 µM was more than 20% and the activation at 1 µM is more than 60%.
Compound `CNc1cc(C)n2ccc(C(=O)NC3c4ccccc4C4CC3C4)c2n1` (centres unmarked) [III-70] displayed a solubility in data set [1] of 0.3 µg/mL (≈ 0.866 µM). In addition, in data set [2], the activation at 0.1 µM was more than 20% and the activation at 1 µM is more than 60%.
As for `CNc1cc(C)n2ccc(C(=O)N[C@H]3CC[C@H](OCC(C)C)CC3)c2n1` [III-71], the concentration in solution in data set [1] (solubility) came to 1 µg/mL (≈ 2.79 µM). Also, in data set [2], the activation at 0.1 µM is more than 20% and the activation at 1 µM was more than 60%.
For `CCCCO[C@H]1CC[C@H](NC(=O)c2ccn3c(C)cc(F)nc23)CC1` [III-72], in that order: 14.3 µg/mL (≈ 41.2 µM), less than 10% and 30 to 60%.
The matching figures for `Cc1cc(Cl)nc2c(C(=O)N[C@H]3CC[C@H](OCC(C)C)CC3)ccn12` [III-73]: 2 µg/mL (≈ 5.5 µM), more than 20% and more than 60%.
The matching figures for `CCCO[C@H]1CC[C@H](NC(=O)c2ccn3c(C)cc(Cl)nc23)CC1` [III-74]: 10.8 µg/mL (≈ 30.9 µM), more than 20% and more than 60%.
`CO[C@H]1CC[C@H](C(C)(C)NC(=O)c2ccn3c(C)cc(Cl)nc23)CC1` [III-75] yielded a solubility in data set [1] of 5.3 µg/mL (≈ 14.6 µM). Moreover, in data set [2], the activation at 0.1 µM was in the range of 10 to 20% and the activation at 1 µM is more than 60%.
As to `CO[C@H]1CC[C@@H](C(C)(C)NC(=O)c2ccn3c(C)cc(Cl)nc23)CC1` [III-76], in data set [1], the solubility was 0.04 µg/mL (≈ 0.11 µM). In data set [2], the activation at 0.1 µM was more than 20% and the activation at 1 µM was more than 60%.
`Cc1cc(C)n2ccc(C(=O)NC3CCCC4(CCCCO4)C3)c2n1` (centres unmarked) [III-80] displayed a solubility in data set [1] of 8.7 µg/mL (≈ 25.5 µM). In addition, in data set [2], the activation at 0.1 µM lay within 10 to 20% and the “Percent Gcase Activation, 1 μM Test Compound” value is given as “+++ (Gcase activation greater than 60%)”.
Consider `Cc1cc(C)n2ccc(C(=O)NC3CCCC4(CCCCO4)C3)c2n1` (centres unmarked) [III-81], for which the “Compound Solubility in Water” value in data set [1] came to 9.8 µg/mL. In addition, in data set [2], the “Percent Gcase Activation, 0.1 μM Test Compound” value is given as “* (less than 10% Gcase activation)” and the “Percent Gcase Activation, 1 μM Test Compound” value was “+ (less than 30% Gcase activation)”.
In data set [1], `Cc1cc(C)n2ccc(C(=O)NC3CCC4(CCCCO4)C3)c2n1` (centres unmarked) [III-82] displayed a solubility of 27.3 µg/mL (≈ 83.4 µM). Moreover, in data set [2], the activation at 0.1 µM was 10 to 20% and the “Percent Gcase Activation, 1 μM Test Compound” value is reported as “+++ (Gcase activation greater than 60%)”.
Take `Cc1cc(C)n2ccc(C(=O)NC3CCC4(CCCCO4)C3)c2n1` (centres unmarked) [III-85]: the “Compound Solubility in Water” value in data set [1] was 21.3 µg/mL. The “Percent Gcase Activation, 0.1 μM Test Compound” value in data set [2] is recorded as “* (less than 10% Gcase activation)”.
As for `Cc1cc(C)n2ccc(C(=O)Nc3ccc(-n4ccnc4)cc3)c2n1` [III-86], the solubility in data set [1] turned out to be 0.3 µg/mL (≈ 0.905 µM). In data set [2], the activation at 0.1 µM was less than 10% and the activation at 1 µM is less than 30%.

Values taken from patent US11351173B2, “Substituted pyrrolo[1,2-a]pyrimidines and their use in the treatment of medical disorders” (Bial—R&D Investments, S.A., priority 2014, dated 2022).
